Tested on: Human primary T cells
Test: IL-2 ELISA, human primary T cell, anti-CD3+CD28+ (whole cell assay)
Format: cell-based
Conditions: human primary T cells stimulated with anti-CD3 + anti-CD28, 24 hours
Description: (§1) Human primary T cells were prepared as follows. Whole blood was obtained from a healthy volunteer, mixed 1:1 with PBS, layered on to Ficoll Hypaque (Amersham Pharmacia Biotech, Piscataway, N.J., Catalog #17-1440-03) in 2:1 blood/PBS:ficoll ratio and centrifuged for 30 minutes at 4° C. at 1750 rpm. The cells at the serum:ficoll interface were recovered and washed twice with 5 volumes of PBS. These freshly isolated human peripheral blood mononuclear cells were cultured in Yssel's medium containing 40 U/mL IL2 in a flask pre-coated with 1 μg/mL αCD3 and 5 μg/mL αCD28 (Anti-Human CD3, BD Pharmingen Catalog #555336, Anti-Human CD28, Beckman Coulter Catalog #IM1376). The cells were stimulated for 3-4 days, then transferred to a fresh flask and maintained in RPMI (RPMI-1640 with L-Glutamine; Mediatech, Inc., Herndon Va., cat. #10-040-CM) with 10% FBS and 40 U/mL IL-2. The primary T-cells were then washed twice with PBS to remove the IL-2.
Human primary T cells (100,000 cells per well) were pre-incubated with or without test compound in Yssel's medium for 1 hr at 37° C. Cells were then stimulated by transferring them to round-bottom 96-well plates pre-coated with 1 μg/ml μCD3 and 5 μg/ml μCD28. For counter assay, cells were instead stimulated by adding 8× stock solutions of PMA and ionomycin in Yssels (for final concentrations of 0.5 ng/ml PMA and 0.1 μM ionomycin, both from Calbiochem). Cells were incubated at 37° C. for 24 hours before 100 μL supernatants were harvested for quantification of IL-2 by ELISA using Human IL-2 Duoset ELISA Kit from R and D Systems, Cat. #DY202E.
as §1, with “Human primary T cell isolation and culture: Human primary” for “Human primary”, “for 30 min at 4°” for “for 30 minutes at 4°”, “at the serum: ficoll interface were” for “at the serum:ficoll interface were”
Primary T cell stimulation and IL2 ELISA: Human primary T cells (100,000 cells per well) were pre-incubated with or without test compound in Yssel's medium for 1 hr at 37° C. Cells were then stimulated by transferring them to round-bottom 96-well plates pre-coated with 1 μg/ml αCD3 and 5 μg/ml αCD28. For counter assay, cells were instead stimulated by adding 8× stock solutions of PMA and ionomycin in Yssels (for final concentrations of 0.5 ng/ml PMA and 0.1 μM ionomycin, both from Calbiochem). Cells were incubated at 37° C. for 24 hours before 100 μL supernatants were harvested for quantification of IL-2 by ELISA using Human IL-2 Duoset ELISA Kit from R and D Systems, Cat. #DY202E.

Row | IC50 (Homo sapiens, T-cell, 24 h) [µM] | IC50 [µM] | SMILES
1 | 0.25 to 0.5 |  | CC1(C)CC(Nc2nc(Nc3ccc(Oc4cccnc4)c(OC(F)F)c3)ncc2F)CC(C)(C)N1 [Compound I-45, N2-(3-(difluoromethoxy)-4-(pyridin-3-yloxy)phenyl)-5-fluoro-N4-(2,2,6,6-tetramethylpiperidin-4-yl)pyrimidine-2,4-diamine]
2 | < 0.25 |  | CN1C(C)(C)CC(Nc2nc(Nc3ccc(OCCN4CCCC4)c(OC(F)F)c3)ncc2F)CC1(C)C [Compound I-46, N2-(4-(2-(pyrrolidin-1-yl)ethoxy)-3-(difluoromethoxy)phenyl)-5-fluoro-N4-(1,2,2,6,6-pentamethylpiperidin-4-yl)pyrimidine-2,4-diamine]
3 | 0.5 to 1 |  | CC1(C)CC(Nc2nc(Nc3ccc(OCCCN4CCOCC4)c(OC(F)F)c3)ncc2F)CC(C)(C)N1 [Compound I-47, N2-(4-(3-morpholinopropoxy)-3-(difluoromethoxy)phenyl)-5-fluoro-N4-(2,2,6,6-tetramethylpiperidin-4-yl)pyrimidine-2,4-diamine]
4 | < 0.25 |  | CN1C(C)(C)CC(Nc2nc(Nc3ccc(OCCCN4CCOCC4)c(OC(F)F)c3)ncc2F)CC1(C)C [Compound I-48, N2-(4-(3-morpholinopropoxy)-3-(difluoromethoxy)phenyl)-5-fluoro-N4-(1,2,2,6,6-pentamethylpiperidin-4-yl)pyrimidine-2,4-diamine]
5 | 0.5 to 1 |  | CN1C(C)(C)CC(Nc2nc(Nc3cc(OCCCn4cccc4)cc(C(F)(F)F)c3)ncc2F)CC1(C)C [Compound I-49, N2-(3-(3-(1H-pyrrol-1-yl)propoxy)-5-(trifluoromethyl)phenyl)-5-fluoro-N4-(1,2,2,6,6-pentamethylpiperidin-4-yl)pyrimidine-2,4-diamine]
6 | > 1 |  | CC1(C)CC(Nc2nc(Nc3ccc(OCCN4CCNC4=O)c(OC(F)F)c3)ncc2F)CC(C)(C)N1 [Compound I-50, 1-(2-(4-(4-(2,2,6,6-tetramethylpiperidin-4-ylamino)-5-fluoropyrimidin-2-ylamino)-2-(difluoromethoxy)phenoxy)ethyl)imidazolidin-2-one]
7 | 0.5 to 1 |  | CN1C(C)(C)CC(Nc2nc(Nc3ccc(OCCN4CCNC4=O)c(OC(F)F)c3)ncc2F)CC1(C)C [Compound I-51, 1-(2-(4-(4-(1,2,2,6,6-pentamethylpiperidin-4-ylamino)-5-fluoropyrimidin-2-ylamino)-2-(difluoromethoxy)phenoxy)ethyl)imidazolidin-2-one]
8 | < 0.25 |  | CN1C(C)(C)CC(Nc2nc(Nc3ccc(Oc4cccnc4)c(OC(F)F)c3)ncc2C#N)CC1(C)C [Compound I-52, 4-(1,2,2,6,6-pentamethylpiperidin-4-ylamino)-2-(3-(difluoromethoxy)-4-(pyridin-3-yloxy)phenylamino)pyrimidine-5-carbonitrile]
9 | > 1 |  | CN1C(C)(C)CC(Nc2nc(Nc3ccc(Oc4ccncc4)c(OC(F)F)c3)ncc2C#N)CC1(C)C [Compound I-53, 4-(1,2,2,6,6-pentamethylpiperidin-4-ylamino)-2-(3-(difluoromethoxy)-4-(pyridin-4-yloxy)phenylamino)pyrimidine-5-carbonitrile]
10 | 0.5 to 1 |  | CN1C(C)(C)CC(Nc2nc(Nc3ccc(OCCn4cncn4)c(OC(F)F)c3)ncc2C#N)CC1(C)C [Compound I-54, 4-(1,2,2,6,6-pentamethylpiperidin-4-ylamino)-2-(4-(2-(1H-1,2,4-triazol-1-yl)ethoxy)-3-(difluoromethoxy)phenylamino)pyrimidine-5-carbonitrile]
11 | 0.25 to 0.5 |  | CN1C(C)(C)CC(Nc2nc(Nc3ccc(OCCn4ccnn4)c(OC(F)F)c3)ncc2C#N)CC1(C)C [Compound I-55, 4-(1,2,2,6,6-pentamethylpiperidin-4-ylamino)-2-(4-(2-(1H-1,2,3-triazol-1-yl)ethoxy)-3-(difluoromethoxy)phenylamino)pyrimidine-5-carbonitrile]
12 | 0.5 to 1 |  | CN1C(C)(C)CC(Nc2nc(Nc3ccc(OCCN4CCCC4=O)c(C(F)(F)F)c3)ncc2F)CC1(C)C [Compound I-56, 1-(2-(4-(4-(1,2,2,6,6-pentamethylpiperidin-4-ylamino)-5-fluoropyrimidin-2-ylamino)-2-(trifluoromethyl)phenoxy)ethyl)pyrrolidin-2-one]
13 | > 1 |  | CC1(C)CC(Nc2nc(Nc3ccc(OCCN4CCCC4=O)c(C(F)(F)F)c3)ncc2F)CC(C)(C)N1 [Compound I-57, 1-(2-(4-(4-(2,2,6,6-tetramethylpiperidin-4-ylamino)-5-fluoropyrimidin-2-ylamino)-2-(trifluoromethyl)phenoxy)ethyl)pyrrolidin-2-one]
14 | 0.5 to 1 |  | CC1(C)CC(Nc2nc(Nc3ccc(Oc4ccncc4)c(OC(F)F)c3)ncc2C#N)CC(C)(C)N1 [Compound I-58, 4-(2,2,6,6-tetramethylpiperidin-4-ylamino)-2-(3-(difluoromethoxy)-4-(pyridin-4-yloxy)phenylamino)pyrimidine-5-carbonitrile]
15 | > 1 |  | CC1(C)CC(Nc2nc(Nc3ccc(Oc4cccnc4)c(C(F)(F)F)c3)ncc2F)CC(C)(C)N1 [Compound I-59, 5-fluoro-N2-(3-(trifluoromethyl)-4-(pyridin-3-yloxy)phenyl)-N4-(2,2,6,6-tetramethylpiperidin-4-yl)pyrimidine-2,4-diamine]
16 | 0.5 to 1 |  | CC1(C)CC(Nc2nc(Nc3ccc(OCCN4CCCC4)c(OC(F)F)c3)ncc2F)CC(C)(C)N1 [Compound I-60, N2-(4-(2-(pyrrolidin-1-yl)ethoxy)-3-(difluoromethoxy)phenyl)-5-fluoro-N4-(2,2,6,6-tetramethylpiperidin-4-yl)pyrimidine-2,4-diamine]
17 | 0.5 to 1 |  | CN1C(C)(C)CC(Nc2nc(Nc3ccc(Oc4cccnc4)c(C(F)(F)F)c3)ncc2F)CC1(C)C [Compound I-61, 5-fluoro-N2-(3-(trifluoromethyl)-4-(pyridin-3-yloxy)phenyl)-N4-(1,2,2,6,6-pentamethylpiperidin-4-yl)pyrimidine-2,4-diamine]
18 | > 1 |  | CN1C(C)(C)CC(Nc2nc(Nc3ccc(Oc4ccncc4)c(C(F)(F)F)c3)ncc2F)CC1(C)C [Compound I-62, 5-fluoro-N2-(3-(trifluoromethyl)-4-(pyridin-4-yloxy)phenyl)-N4-(1,2,2,6,6-pentamethylpiperidin-4-yl)pyrimidine-2,4-diamine]
19 | 0.25 to 0.5 |  | CC1(C)CC(Nc2nc(Nc3ccc(-c4cccnc4)c(OC(F)F)c3)ncc2F)CC(C)(C)N1 [Compound I-63, N2-(3-(difluoromethoxy)-4-(pyridin-3-yl)phenyl)-5-fluoro-N4-(2,2,6,6-tetramethylpiperidin-4-yl)pyrimidine-2,4-diamine]
20 | < 0.25 |  | CN1C(C)(C)CC(Nc2nc(Nc3ccc(-c4cccnc4)c(OC(F)F)c3)ncc2F)CC1(C)C [Compound I-64, N2-(3-(difluoromethoxy)-4-(pyridin-3-yl)phenyl)-5-fluoro-N4-(1,2,2,6,6-pentamethylpiperidin-4-yl)pyrimidine-2,4-diamine]
21 | 0.5 to 1 |  | CC1(C)CC(Nc2nc(Nc3ccc(OCCN4CCOCC4)c(C(F)(F)F)c3)ncc2F)CC(C)(C)N1 [Compound I-65, N2-(4-(2-morpholinoethoxy)-3-(trifluoromethyl)phenyl)-5-fluoro-N4-(2,2,6,6-tetramethylpiperidin-4-yl)pyrimidine-2,4-diamine]
22 | > 1 |  | CC1(C)CC(Nc2nc(Nc3ccc(OCCCN4CCOCC4)c(OC(F)F)c3)ncc2F)CC(C)(C)N1CC(F)(F)F [Compound I-66, N2-(4-(3-morpholinopropoxy)-3-(difluoromethoxy)phenyl)-5-fluoro-N4-(1-(2,2,2-trifluoroethyl)-2,2,6,6-tetramethylpiperidin-4-yl)pyrimidine-2,4-diamine]
23 |  | > 1 | CC1(C)CC(Nc2nc(Nc3ccc(F)c(-n4cnnn4)c3)ncc2C(N)=O)CC(C)(C)N1 [Compound I-67, 5-aminocarbonyl-N2-[4-fluoro-3-(1H-tetrazol-1-yl)]phenyl-N4-(2,2,6,6-tetramethylpiperidin-4-yl)-2,4-pyrimidinediamine]

Reference: US9149475B2, “Protein kinase C inhibitors and uses thereof” (Rigel Pharmaceuticals, Inc., priority 2009, dated 2015)
